Like-named read-outs stand apart in the source and are kept apart here.
System: osteoclast differentiation
Test: Inhibitory effect on osteoclast differentiation, co-culture of bone marrow cells and osteoblast, TRAP staining
Type: cell-based, mouse
Settings: for inhibition at 1 µM: Mus musculus, Osteoclast, 168 h, read-out: inhibitory effect on osteoclast differentiation(%)
Procedure: The effect of the benzamidine derivative of the present invention on osteoclast formation and differentiation process was evaluated via co-culture with an osteoblast.
Tibia was aseptically ectomized from male 6 to 8-week-old ddY mice to harvest bone marrow cells by using a syringe (21G, Korea Green Cross). The bone marrow cells were suspended in 5 mL of an α-MEM medium (Gibco BRL Co., added with sodium bicarbonate (2.0 g/L), streptomycin (100 mg/L) and penicillin ([…]), filtered and then sterilized). The harvested cells were centrifuged at 600×g for 5 mins to collect the whole quantity. To remove the red blood cells in the bone marrow cells, 3 mL of Tris HCl (0.83% NH4Cl, pH 7.5) was added and well mixed. After centrifuging above cells, the numbers of the eukaryotic cells in the harvested bone marrow cells were counted and then immediately used for a co-culture system.
The progenitor bone and the parietal bone were aseptically ectomized from 1 to 2-day-old neonate ICR mice, washed with a phosphate butter solution (PBS) and treated with a mixed enzyme solution (of 0.2% collagenase and 0.1% dispase) sequentially (10, 10, 10, 20, 20 and 20 min), and then 3 to 6 groups of the cells which comprise lot of cells having the characteristics of the osteoblast were intensively collected and washed with a medium (a serum-free α-MEM). The washed cells were cultured in the α-MEM medium containing 10% FBS for 2 to 3 days. After subculturing, the collected cells were used for this experiment, and diluted to a concentration of 1×10^6 cells/mL for storage at −70[…].
The benzamidine derivative of the present invention was dissolved in a sterile distilled water or ethanol to dilute to a desired concentration. The final volume of the sample added to the cell culture medium was set at a ratio of 1:1000.
The bone marrow cells prepared in the above 1-1 and the osteoblast were co-cultured for osteoclast differentiation. Both the bone marrow cells (25,000 cells/cm^2) and the osteoblast (10,000 cells/cm^2) were plated in a 96-well plate using α-MEM medium containing FBS, and then cultured with the samples to be tested for 7 days. Differentiation factors, such as dexamethasone (10^−7 M) and vitamin D3 (10^−8 M), were also co-added to the medium from the first day of cultivation. The medium was changed with a fresh media containing a mixture of the samples and the differentiation factors every 2 to 3 days.
TRAP was used as a marker to measure the matured osteoclast in consideration of its characteristics showing a positive reaction to a TRAP staining solution. The TRAP staining solution was prepared in such the manner that 5 mg of naphtol AS-MS phosphate (sigma N-4875) as a substrate, and 25 mg of a coloring agent (Fast Red Violet LB salt) were dissolved in N,N-dimethylformamide (about 0.5 mL). 50 ml of a 0.1 N NaHCO3 buffer solution containing 50 mM tartaric acid (pH 5.0) was added thereto, and the mixture was stored at a refrigerator prior to use as a staining solution.
After culturing the cells for 7 days, the medium was removed from the wells, the cells were once washed with PBS, and then fixed with PBS containing 10% formalin for 2 to 5 min. The cells were fixed again in a mixed solution of ethanol and acetone (1/1) for about 1 min, and dried off. The cells were further treated by the TRAP staining solution for 15 mins and washed with water and dried off. The osteoclasts with 3 or more nuclei showing a TRAP-positive reaction were counted under a microscopic examination. Each of tests was confirmed over at least three times. The inhibitory effect on osteoclast differentiation of each experimental group, relative to negative controls, was expressed as a percentage (%).

[1] = 1 μm, 7 days co-culture, TRAP-positive osteoclasts with 3 or more nuclei, relative to negative controls

Compound: CC(C)c1nc(-c2ccc(OCCCCCOc3ccc(C(=N)NO)cc3)cc2)c(CCNCCCn2ccnc2)s1 [Example 31, N-hydroxy-4-[5-(4-{5-[2-(3-imidazol-1-yl-propylamino)-ethyl]-2-isopropyl-thiazol-4-yl}-phenoxy)-pentyloxy]-benzamidine]
- inhibition at 1 µM: 97%

Compound: CC(C)c1nc(-c2ccc(OCCCCCOc3ccc(C(=N)NO)cc3)cc2)c(CCN2CCSCC2)s1 [Example 32, N-hydroxy-4-(5-{4-[2-isopropyl-5-(2-thiomorpholin-4-yl-ethyl)-thiazol-4-yl]-phenoxy}-pentyloxy)-benzamidine]
- inhibition at 1 µM: 97%

Compound: CN1CCN(CCc2sc(C3CCCCC3)nc2-c2ccc(OCCCCCOc3ccc(C(=N)NO)cc3)cc2)CC1 [Example 34, N-hydroxy-4-[5-(4-{2-cyclohexyl-5-[2-(4-methyl-piperazin-1-yl)-ethyl]-thiazol-4-yl}-phenoxy)-pentyloxy]-benzamidine]
- inhibition at 1 µM: 100%

Compound: CNc1nc(-c2ccc(OCCCCCOc3ccc(C(=N)NO)cc3)cc2)c(CCN2CCN(C)CC2)s1 [Example 48, N-hydroxy-4-[5-(4-{2-methylamino-5-[2-(4-methyl-piperazin-1-yl)-ethyl]-thiazol-4-yl}-phenoxy)-pentyloxy]-benzamidine]
- inhibition at 1 µM [1]: 60.6%

Compound: CNc1nc(-c2ccc(OCCCCCOc3ccc(C(=N)NO)cc3)cc2)c(CCN2CCSCC2)s1 [Example 49, N-hydroxy-4-(5-{4-[2-methylamino-5-(2-thiomorpholin-4-yl-ethyl)-thiazol-4-yl]-phenoxy}-pentyloxy)-benzamidine]
- inhibition at 1 µM [1]: 84%

Compound: CN(C)c1nc(-c2ccc(OCCCCCOc3ccc(C(=N)NO)cc3)cc2)c(CCN2CCSCC2)s1 [Example 54, N-hydroxy-4-(5-{4-[2-dimethylamino-5-(2-thiomorpholin-4-yl-ethyl)-thiazol-4-yl]-phenoxy}-pentyloxy)-benzamidine]
- inhibition at 1 µM [1]: 88%

Compound: CC(C)C(=O)N(C)c1nc(-c2ccc(OCCCCCOc3ccc(C(=N)NO)cc3)cc2)c(CCN2CCOCC2)s1 [Example 55, N-hydroxy-4-(5-{4-[2-(isobutyryl-methyl-amino)-5-(2-morpholin-4-yl-ethyl)-thiazol-4-yl]-phenoxy}-pentyloxy)-benzamidine]
- inhibition at 1 µM [1]: 69%

Compound: N=C(NO)c1ccc(OCCCCCOc2ccc(-c3nc(N4CCOCC4)sc3CCN3CCSCC3)cc2)cc1 [Example 60, N-hydroxy-4-(5-{4-[2-morpholin-4-yl-5-(2-thiomorpholin-4-yl-ethyl)-thiazol-4-yl]-phenoxy}-pentyloxy)-benzamidine]
- inhibition at 1 µM [1]: 88%

Compound: CN1CCN(CCc2sc(N3CCOCC3)nc2-c2ccc(OCCCCCOc3ccc(C(=N)NO)cc3)cc2)CC1 [Example 61, N-hydroxy-4-[5-(4-{5-[2-(4-methyl-piperazin-1-yl)-ethyl]-2-morpholin-4-yl-thiazol-4-yl}-phenoxy)-pentyloxy]-benzamidine]
- inhibition at 1 µM [1]: 76%

Compound: CNC(=O)c1sc(C)nc1-c1ccc(OCCCCCOc2ccc(C(=N)NO)cc2)cc1 [Example 69]
- inhibitory effect on osteoclast differentiation(%) [1]: 90.3%

Compound: Cc1nc(-c2ccc(OCCCCCOc3ccc(C(=N)NO)cc3)cc2)c(C(=O)NC(C)C)s1 [Example 70, N-hydroxy-4-{5-[4-(5-isopropylcarbamoyl-2-methyl-thiazol-4-yl)-phenoxy]-pentyloxy}-benzamidine]
- inhibition at 1 µM [1]: 84.8%

Compound: Cc1nc(-c2ccc(OCCCCCOc3ccc(C(=N)NO)cc3)cc2)c(C(=O)NCCCn2ccnc2)s1 [Example 71, N-hydroxy-4-{5-[4-(5-{3-imidazol-1-yl-propylcarbamoyl}-2-methyl-thiazol-4-yl)-phenoxy]-pentyloxy}-benzamidine]
- inhibition at 1 µM [1]: 90.4%

Compound: N-hydroxy-(5-{4-[5-(2-isobutyrylamino-ethyl)-2-methyl-thiazol-4-yl]-phenoxy}-pentyloxy)-benzamidine [Example 65]
- inhibitory effect on osteoclast differentiation(%) [1]: 29%

Reference: patent US7943646B2, “Benzamidine derivative, process for the preparation thereof and pharmaceutical composition comprising same” (Dong Wha Pharmaceutical Co., Ltd., priority 2006, dated 2011)
